Test results: patent US20230293518A1 (Edgewise Therapeutics, Inc., priority 2020, published 2023)

What follows are molecules tested against skeletal myofibrils (myosin ATPase) (assay: Skeletal Myofibril ATPase Assay). Settings: Table 4A.
Assay type: biochemical
Protocol: Example 12. Skeletal Myofibril ATPase Assay
Overview: Myosin ATPase activity is assessed by using a coupled reaction system, in which ADP generated by the myosin ATPase function is coupled to the disappearance of NADH through the pyruvate kinase/lactate dehydrogenase (PK-LDH) system. ATPase activity produces ADP, which is used as a substrate for PK to produce pyruvate and regenerate ATP. The pyruvate is then used as a substrate by LDH to oxidize NADH to NAD+. The rate of the reaction is monitored through the time-dependent disappearance of NADH using absorbance at 340 nm. Inhibition of ATPase activity by the assayed compounds is indicated by a reduced rate of NADH loss, relative to vehicle-treated controls, over the experimental time window. To assess the selectivity of the assayed compounds for skeletal myofibrils, the compounds are counter-screened in cardiac myofibrils.
Materials: The following stock solutions and reagents were used in the Skeletal Myofibril ATPase Assay:
Stock Solutions of pCa buffer. Combine PIPES, CaCl2, and EGTA solutions with 70 mL of water. Adjust pH to 7.0 and bring final volume to 100 mL.
Buffer A & Buffer B. Buffers were stored on ice until use.
Skeletal Myofibril ATPase Assay Procedure: BSA, ATP, NADH, PEP, and DTT solutions were thawed at room temperature, then transferred to ice. Pellet-frozen myofibrils were transferred with approximately twice the required volume into a sufficiently large tube and capped. Myofibrils were thawed by rolling in a water bath for approximately 15 min at room temperature and cooled on ice. Buffers A and B were prepared by adjusting volumes as necessary for required number of wells and stored on ice. 0.5 μL of the compounds to be assayed were added into wells. 25 μL of Buffer A was dispensed into the wells, followed by 25 μL of Buffer B. The wells were measured for absorbance at 340 nm, using a kinetic protocol in which the wells are read every 1.5-2 min for 45 min. The slope of the data was approximated by subtracting the minimum absorbance value from the maximum value for each well. This was accomplished either in the SoftMax Pro software or in a spreadsheet program such as Excel. Using GraphPad Prism 8.0, the data was normalized by assigning a value of 100% to the 1% DMSO vehicle wells. Typically, a normalized 0% value was simply assigned to a (Max−Min) value of 0. The normalized data was fit to a Four Parameter Logistic sigmoidal equation, constraining the bottom to be 0 or greater. Compounds of Table 1, 2, and 3 were tested and results of the assay appear in Tables 4a-4c. A=IC50 is less than or equal to 10 μM; B═IC50 is greater than 10 μM and less than 100 μM; C═IC50 is greater than 100 μM.

SMILES | IC50 [µM]
CCNC(=O)Cn1nc(-c2ccc(NC34CC(C)(C3)C4)nc2)ccc1=O [Compound I-60, N-ethyl-2-(3-(6-((3-methylbicyclo [1.1.1]pentan-1-yl)amino)pyridin-3-yl)-6-oxopyridazin-1(6H)-yl)acetamide] | < 10
CCNC(=O)Cn1nc(-c2ccc(NC34CC(C3)C4)nc2)ccc1=O [Compound I-36, 2-[3-[6-([bicyclo[1.1.1]pentan-1-yl]amino)pyridin-3-yl]-6-oxo-1,6-dihydropyridazin-1-yl]-N-ethylacetamide] | < 10
CC1(NC(=O)Cn2nc(-c3ccc(OC(F)F)nc3)ccc2=O)CCC1 [Compound I-15, 2-(3-(6-(difluoromethoxy)pyridin-3-yl)-6-oxopyridazin-1(6H)-yl)-N-(1-methylcyclobutyl) acetamide] | 10 to 100
O=C(Cn1nc(-c2ccc(NC34CC(C3)C4)nc2)ccc1=O)NC1CCC1 [Compound I-54, 2-(3-(6-(bicyclo[1.1.1]pentan-1-ylamino)pyridin-3-yl)-6-oxopyridazin-1(6H)-yl)-N-cyclobutylacetamide] | < 10
CCNC(=O)Cn1nc(-c2ccc(NC3CCC3)nc2)ccc1=O [Compound I-62, 2-(3-(6-(cyclobutylamino)pyridin-3-yl)-6-oxopyridazin-1(6H)-yl)-N-ethylacetamide] | < 10
CCNC(=O)Cn1nc(-c2cnc(Oc3ccc(Cl)cc3)nc2)ccc1=O [Compound I-78, 2-(3-(2-(4-chlorophenoxy)pyrimidin-5-yl)-6-oxopyridazin-1(6H)-yl)-N-ethylacetamide] | 10 to 100
CCNC(=O)Cn1nc(-c2ccc(N(C)C3CCC3)nc2)ccc1=O [Compound I-61, 2-(3-(6-(cyclobutyl(methyl)amino)pyridin-3-yl)-6-oxopyridazin-1(6H)-yl)-N-ethylacetamide] | < 10
O=C(Cn1nc(-c2cnc(OCC(F)(F)F)nc2)ccc1=O)NC1CCC1 [Compound I-71, N-cyclobutyl-2-(6-oxo-3-(2-(2,2,2-trifluoroethoxy)pyrimidin-5-yl)pyridazin-1(6H)-yl)acetamide] | < 10

Same assay, conditions: Table 4B

SMILES | IC50 [µM]
CCNC(=O)Cn1nc(-c2ccc(OC(F)F)cc2)ccc1=O [II-10, 2-(3-(4-(difluoromethoxy)phenyl)-6-oxopyridazin-1(6H)-yl)-N-ethylacetamide] | < 10
CCNC(=O)Cn1nc(-c2ccc(OCC(F)(F)F)cc2)ccc1=O [II-6, N-ethyl-2-(6-oxo-3-(4-(2,2,2-trifluoroethoxy)phenyl)pyridazin-1(6H)-yl)acetamide] | < 10
O=C(Cn1nc(-c2ccc(OCC(F)(F)F)cc2)ccc1=O)NCc1ccncc1Cl [II-25, N-((3-chloropyridin-4-yl)methyl)-2-(6-oxo-3-(4-(2,2,2-trifluoroethoxy)phenyl)pyridazin-1(6H)-yl)acetamide] | > 100
O=C(Cn1nc(-c2ccc(OCC(F)(F)F)cc2)ccc1=O)NCc1ccc(CO)cc1 [II-24, N-(4-(hydroxymethyl)benzyl)-2-(6-oxo-3-(4-(2,2,2-trifluoroethoxy)phenyl)pyridazin-1(6H)-yl)acetamide] | > 100
O=C(Cn1nc(-c2ccc(OC(F)F)cc2)ccc1=O)NCc1ccccc1Cl [II-3, N-(2-chlorobenzyl)-2-(3-(4-(difluoromethoxy)phenyl)-6-oxopyridazin-1(6H)-yl)acetamide] | < 10
CCNC(=O)Cn1nc(-c2ccc(OC(F)F)cc2)c(C)cc1=O [II-19, 2-(3-(4-(difluoromethoxy)phenyl)-4-methyl-6-oxopyridazin-1(6H)-yl)-N-ethylacetamide] | 10 to 100
CCNC(=O)Cn1nc(-c2ccc(OC(F)(F)F)cc2)ccc1=O [II-5, N-ethyl-2-(6-oxo-3-(4-(trifluoromethoxy)phenyl)pyridazin-1(6H)-yl)acetamide] | < 10

Same assay, conditions: Table 4C

SMILES | IC50 [µM]
O=C(Cn1nc(-c2ccccc2)ccc1=O)Nc1ccccc1C(F)(F)F [IIIc-52, 2-(6-oxo-3-phenylpyridazin-1(6H)-yl)-N-(2-(trifluoromethyl)phenyl)acetamide] | 10 to 100
COc1ccc(-c2ccc(=O)n(CC(=O)NCC(C)C)n2)cc1 [IIIb-29, N-isobutyl-2-(3-(4-methoxyphenyl)-6-oxopyridazin-1(6H)-yl)acetamide] | 10 to 100
COc1ccc(-c2ccc(=O)n(CC(=O)NC(C)c3ccccc3Cl)n2)cc1 (stereo not drawn) [IIIa-25, N-(1-(2-chlorophenyl)ethyl)-2-(3-(4-methoxyphenyl)-6-oxopyridazin-1(6H)-yl)acetamide] | 10 to 100
O=C(Cn1nc(-c2ccccc2)ccc1=O)Nc1ccc2[nH]ccc2c1 [IIIc-49, N-(1H-indol-5-yl)-2-(6-oxo-3-phenylpyridazin-1(6H)-yl)acetamide] | < 10
Cn1ccc2c(NC(=O)Cn3nc(-c4ccc(Cl)cc4)ccc3=O)cccc21 [IIIc-20, 2-(3-(4-chlorophenyl)-6-oxopyridazin-1(6H)-yl)-N-(1-methyl-1H-indol-4-yl)acetamide] | < 10
COc1ccc(-c2ccc(=O)n(CC(=O)NCc3ccccc3Cl)n2)cc1F [IIIa-24, N-(2-chlorobenzyl)-2-(3-(3-fluoro-4-methoxyphenyl)-6-oxopyridazin-1(6H)-yl)acetamide] | 10 to 100
COc1ccc(-c2ccc(=O)n(CC(=O)NCc3ccco3)n2)cc1 [IIIb-53, N-(furan-2-ylmethyl)-2-(3-(4-methoxyphenyl)-6-oxopyridazin-1(6H)-yl)acetamide] | > 100
Cc1ccc(-c2ccc(=O)n(CC(=O)NC3CCCC3)n2)cc1 [IIIc-5, N-cyclopentyl-2-(6-oxo-3-(p-tolyl)pyridazin-1(6H)-yl)acetamide] | 10 to 100
COc1ccc(-c2ccc(=O)n(CC(=O)Nc3ccc4c(c3)OCO4)n2)c(F)c1 [IIIb-33, N-(benzo[d][1,3]dioxol-5-yl)-2-(3-(2-fluoro-4-methoxyphenyl)-6-oxopyridazin-1(6H)-yl)acetamide] | 10 to 100
CN(Cc1ccccc1)C(=O)Cn1nc(-c2ccc(Cl)cc2)ccc1=O [IIIc-32, N-benzyl-2-(3-(4-chlorophenyl)-6-oxopyridazin-1(6H)-yl)-N-methylacetamide] | 10 to 100
CC(C)CNC(=O)Cn1nc(-c2ccc(Cl)cc2)ccc1=O [IIIc-35, 2-(3-(4-chlorophenyl)-6-oxopyridazin-1(6H)-yl)-N-isobutylacetamide] | 10 to 100
COc1ccc(-c2ccc(=O)n(CC(=O)NCCc3ccc(OC)c(OC)c3)n2)cc1 [IIIb-51, N-(3,4-dimethoxyphenethyl)-2-(3-(4-methoxyphenyl)-6-oxopyridazin-1(6H)-yl)acetamide] | > 100
O=C(Cn1nc(-c2ccccc2)ccc1=O)Nc1ccccc1Cl [IIIc-56, N-(2-chlorophenyl)-2-(6-oxo-3-phenylpyridazin-1(6H)-yl)acetamide] | 10 to 100
COc1ccc(-c2ccc(=O)n(CC(=O)Nc3cc(Cl)ccc3Cl)n2)cc1 [IIIb-10, N-(2,5-dichlorophenyl)-2-(3-(4-methoxyphenyl)-6-oxopyridazin-1(6H)-yl)acetamide] | < 10
O=C(Cn1nc(-c2ccccc2)ccc1=O)NC1(c2ccccc2)CCC1 [IIIc-51, 2-(6-oxo-3-phenylpyridazin-1(6H)-yl)-N-(1-phenylcyclobutyl)acetamide] | < 10
COc1ccc(-c2ccc(=O)n(CC(=O)NCc3ccno3)n2)cc1 [IIIa-34, N-(isoxazol-5-ylmethyl)-2-(3-(4-methoxyphenyl)-6-oxopyridazin-1(6H)-yl)acetamide] | > 100
CCOc1ccc(-c2ccc(=O)n(CCNC(=O)CC3CCCC3)n2)cc1 [IIIb-43, 2-cyclopentyl-N-(2-(3-(4-ethoxyphenyl)-6-oxopyridazin-1(6H)-yl)ethyl)acetamide] | > 100
COc1ccc(-c2ccc(=O)n(CC(=O)NCc3ccccc3Cl)n2)c(C)c1 [IIIa-22, N-(2-chlorobenzyl)-2-(3-(4-methoxy-2-methylphenyl)-6-oxopyridazin-1(6H)-yl)acetamide] | 10 to 100
COc1ccc(-c2ccc(=O)n(CC(=O)NCc3cnccn3)n2)cc1 [IIIa-28, 2-(3-(4-methoxyphenyl)-6-oxopyridazin-1(6H)-yl)-N-(pyrazin-2-ylmethyl) acetamide] | > 100
COc1ccc(-c2ccc(=O)n(CC(=O)NC3CC3)n2)cc1 [IIIb-22, N-cyclopropyl-2-(3-(4-methoxyphenyl)-6-oxopyridazin-1(6H)-yl)acetamide] | 10 to 100
COc1ccc(-c2ccc(=O)n(CC(=O)NCCc3ccccc3)n2)c(F)c1 [IIIb-9, 2-(3-(2-fluoro-4-methoxyphenyl)-6-oxopyridazin-1(6H)-yl)-N-phenethylacetamide] | < 10
